# Assay results as given in patent publication US9694016B2 (Novartis AG, priority 2013, dated 2017).
# Where two headings read alike, the source gives them in different places.
# Biological target: b-Raf (V600E) (Homo sapiens (Human), UniProt P15056, V600E)
# Conditions: read-out: b-Raf IC-50
# [1] = Table 2, AlphaScreen, 3 hours reaction
# [2] = AlphaScreen, 60 min pre-incubation, reaction 3 hours at room temperature
# [3] = AlphaScreen, 60 min pre-incubation, 3 hours reaction
# Sequence of b-Raf (V600E) (P15056 whole entry V600E): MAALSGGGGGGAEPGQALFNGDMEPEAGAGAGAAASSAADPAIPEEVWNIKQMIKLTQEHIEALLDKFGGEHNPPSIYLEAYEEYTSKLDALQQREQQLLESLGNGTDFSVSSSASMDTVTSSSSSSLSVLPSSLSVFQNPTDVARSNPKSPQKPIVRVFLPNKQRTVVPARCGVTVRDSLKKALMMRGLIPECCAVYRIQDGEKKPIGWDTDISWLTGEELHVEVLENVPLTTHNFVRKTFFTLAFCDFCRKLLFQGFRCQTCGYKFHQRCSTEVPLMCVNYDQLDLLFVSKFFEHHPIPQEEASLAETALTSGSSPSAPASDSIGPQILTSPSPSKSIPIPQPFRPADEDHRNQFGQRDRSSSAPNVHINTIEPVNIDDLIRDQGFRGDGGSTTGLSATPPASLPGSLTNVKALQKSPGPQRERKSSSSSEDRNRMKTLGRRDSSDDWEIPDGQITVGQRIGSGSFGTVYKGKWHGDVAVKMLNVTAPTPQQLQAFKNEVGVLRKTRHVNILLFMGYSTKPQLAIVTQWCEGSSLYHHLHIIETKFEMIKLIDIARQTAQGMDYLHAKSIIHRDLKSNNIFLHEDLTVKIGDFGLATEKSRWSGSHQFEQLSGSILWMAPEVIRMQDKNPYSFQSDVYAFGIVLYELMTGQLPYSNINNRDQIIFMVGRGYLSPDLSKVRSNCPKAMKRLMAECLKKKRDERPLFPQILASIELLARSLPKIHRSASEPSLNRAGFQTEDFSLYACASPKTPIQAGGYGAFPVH
IC50 [1],IC50 [3],Compound,other results
2.2 nM,–,"Cc1ccc(NC(=O)c2ccnc(C(C)(C)C#N)c2)cc1-c1cnc(OC(F)F)c(N2CCOCC2)c1 [Example 223, 2-(2-cyanopropan-2-yl)-N-(3-(6-(difluoromethoxy)-5-morpholinopyridin-3-yl)-4-methylphenyl)isonicotinamide]",–
3.9 nM,–,"Cc1ncc(NC(=O)c2cccc(C(F)(F)F)c2)cc1-c1cnc(CS(C)(=O)=O)c(N2CCOCC2)c1 [Example 327, N-(2-methyl-6′-((methylsulfonyl)methyl)-5′-morpholino-[3,3′-bipyridin]-5-yl)-3-(trifluoromethyl)benzamide]",–
–,–,"Cc1ccc(NC(=O)c2cccc(C(F)(F)F)c2)cc1-c1cc(NCC(C)(C)O)nc(N2CCOCC2)c1 [Example 1062, N-(3-(2-((2-hydroxy-2-methylpropyl)amino)-6-morpholinopyridin-4-yl)-4-methylphenyl)-3-(trifluoromethyl)benzamide]",IC50 [2]: 0.98 nM
0.9 nM,–,"CCOc1ncc(-c2cc(C(=O)Nc3cccc(S(C)(=O)=O)c3)ccc2C)cc1N1CCOCC1 [Example 238, 3-(6-ethoxy-5-morpholinopyridin-3-yl)-4-methyl-N-(3-(methylsulfonyl)phenyl)benzamide]",–
–,4.3 nM,"CCN(C)c1cc(C(=O)Nc2ccc(C)c(-c3cc(N4CCOCC4)c(=O)n(C)c3)c2)ccn1 [Example 453, 2-(ethyl(methyl)amino)-N-(4-methyl-3-(1-methyl-5-morpholino-6-oxo-1,6-dihydropyridin-3-yl)phenyl)isonicotinamide]",–
0.5 nM,–,"Cc1ccc(NC(=O)c2cnnc(C(F)(F)F)c2)cc1-c1cnc(OC2CCOCC2)c(N2CCOCC2)c1 [Example 275, N-(4-methyl-3-(5-morpholino-6-((tetrahydro-2H-pyran-4-yl)oxy)pyridin-3-yl)phenyl)-6-(trifluoromethyl)pyridazine-4-carboxamide]",–
–,27.2 nM,"CCNc1nc(-c2cc(NC(=O)c3cnnc(C(C)(C)C#N)c3)cnc2C)cc(N2CCOCC2)n1 [Example 730, 6-(2-cyanopropan-2-yl)-N-(5-(2-(ethylamino)-6-morpholinopyrimidin-4-yl)-6-methylpyridin-3-yl)pyridazine-4-carboxamide]",–
2.4 nM,–,"Cc1ncc(NC(=O)c2cc(CN(C)C)cc(C(F)(F)F)c2)cc1-c1cnc(N(C)C)c(N2CCOCC2)c1 [Example 269, N-(6′-(dimethylamino)-2-methyl-5′-morpholino-[3,3′-bipyridin]-5-yl)-3-((dimethylamino)methyl)-5-(trifluoromethyl)benzamide]",–
–,2.5 nM,"CCNc1nc(-c2cc(NC(=O)c3ccnc(C(C)(C)O)c3)ccc2C)cc(N2CCOC[C@@H]2C)n1 [Example 713, (S)—N-(3-(2-(ethylamino)-6-(3-methylmorpholino)pyrimidin-4-yl)-4-methylphenyl)-2-(2-hydroxypropan-2-yl)isonicotinamide]",–
–,–,"Cc1ccc(NC(=O)c2ccnc(C(F)(F)F)c2)cc1-c1cc(N2CCOCC2)nc(N2CCOCC2)c1 [Example 1112, N-(3-(2,6-dimorpholinopyridin-4-yl)-4-methylphenyl)-2-(trifluoromethyl)isonicotinamide]",IC50 [2]: 0.83 nM
–,7.8 nM,"Cc1ccc(NC(=O)c2ccnc(C(C)(C)C#N)c2)cc1-c1cc(N2CCOC(C)(C)C2)c(=O)n(C)n1 [Example 666, 2-(2-cyanopropan-2-yl)-N-(3-(5-(2,2-dimethylmorpholino)-1-methyl-6-oxo-1,6-dihydropyridazin-3-yl)-4-methylphenyl)isonicotinamide]",–
–,–,"Cc1ccc(NC(=O)c2ccnc(C(F)(F)F)c2)cc1-c1cc(NC[C@@H](C)O)nc(N2CCOCC2)c1 [Example 991, (R)—N-(3-(2-((2-hydroxypropyl)amino)-6-morpholinopyridin-4-yl)-4-methylphenyl)-2-(trifluoromethyl)isonicotinamide]",IC50 [2]: 2.36 nM
–,3.4 nM,"CCNc1nc(-c2cc(NC(=O)c3cnnc(C(C)(C)C#N)c3)ccc2C)cc(N2CCOCC2)n1 [Example 709, 6-(2-cyanopropan-2-yl)-N-(3-(2-(ethylamino)-6-morpholinopyrimidin-4-yl)-4-methylphenyl)pyridazine-4-carboxamide]",–
–,33.2 nM,"Cc1ncc(NC(=O)c2ccnc(C(C)(C)C#N)c2)cc1-c1cc(N2CCOCC2)nc(NC[C@H](C)O)n1 [Example 738, (S)-2-(2-cyanopropan-2-yl)-N-(5-(2-((2-hydroxypropyl)amino)-6-morpholinopyrimidin-4-yl)-6-methylpyridin-3-yl)isonicotinamide]",–
–,2.1 nM,"COc1nnc(-c2cc(NC(=O)c3ccnc(C(C)(C)C#N)c3)ccc2C)cc1N1CCOCC1 [Example 558, 2-(2-cyanopropan-2-yl)-N-(3-(6-methoxy-5-morpholinopyridazin-3-yl)-4-methylphenyl)isonicotinamide]",–
–,–,"Cc1ccc(C(=O)Nc2cccc(C(F)(F)F)c2)cc1-c1nc2c(c(N3CCOCC3)n1)CNC2 [Example 889, 4-methyl-3-(4-morpholino-6,7-dihydro-5H-pyrrolo[3,4-d]pyrimidin-2-yl)-N-(3-(trifluoromethyl)phenyl)benzamide]",IC50 [2]: 3.3 nM
–,1.2 nM,"COc1nnc(-c2cc(NC(=O)c3cccc(S(C)(=O)=O)c3)ccc2C)cc1N1CCOCC1 [Example 553, N-(3-(6-methoxy-5-morpholinopyridazin-3-yl)-4-methylphenyl)-3-(methylsulfonyl)benzamide]",–
–,–,"Cc1ccc(NC(=O)c2cccc(C(C)(C)S(C)(=O)=O)c2)cc1-c1cc(N2CCOCC2)nc(N2CC(O)C2)c1 [Example 1099, N-(3-(2-(3-hydroxyazetidin-1-yl)-6-morpholinopyridin-4-yl)-4-methylphenyl)-3-(2-(methylsulfonyl)propan-2-yl)benzamide]",IC50 [2]: 18.8 nM
–,–,"Cc1ncc(NC(=O)c2cccc(C(F)F)c2)cc1-c1cc(N2CCOCC2)nc(N2CC(O)C2)c1 [Example 1079, 3-(difluoromethyl)-N-(2′-(3-hydroxyazetidin-1-yl)-2-methyl-6′-morpholino-[3,4′-bipyridin]-5-yl)benzamide]",IC50 [2]: 4.64 nM
5.3 nM,–,"CCOc1ncc(-c2cc(NC(=O)c3ccnc(S(C)(=O)=O)c3)cnc2C)cc1N1CCOCC1 [Example 243, N-(6′-ethoxy-2-methyl-5′-morpholino-[3,3′-bipyridin]-5-yl)-2-(methylsulfonyl)isonicotinamide]",–
–,–,Cc1ncc(NC(=O)c2cccc(C(F)(F)F)c2)cc1-c1cnc(OCC2COCCO2)c(N2CCOCC2)c1 (centres unmarked) [Example 992],IC50 [2]: 1.63 nM
1.8 nM,–,"Cc1ncc(NC(=O)c2cccc(C(F)(F)F)c2)cc1-c1cnc(OC2CCOCC2)c(N2CCOCC2)c1 [Example 131, N-(2-methyl-5′-morpholino-6′-((tetrahydro-2H-pyran-4-yl)oxy)-[3,3′-bipyridin]-5-yl)-3-(trifluoromethyl)benzamide]",–
1.1 nM,–,"Cc1ncc(NC(=O)c2cccc(C(F)(F)F)c2)cc1-c1cnc(OC2CC3(COC3)C2)c(N2CCOCC2)c1 [Example 322, N-(6′-(2-oxaspiro[3.3]heptan-6-yloxy)-2-methyl-5′-morpholino-[3,3′-bipyridin]-5-yl)-3-(trifluoromethyl)benzamide]",–
100 nM,–,"COC(=O)NCCn1cc(-c2cc(NC(=O)c3cccc(C(F)(F)F)c3)cnc2C)cc(N2CCOCC2)c1=O [Example 193, methyl(2-(2′-methyl-5-morpholino-6-oxo-5′-(3-(trifluoromethyl)benzamido)-[3,3′-bipyridin]-1(6H)-yl)ethyl)carbamate]",–
–,–,"CCOc1ncc(-c2cc(NC(=O)c3cnnc(C(F)(F)F)c3)cnc2C)cc1N1C2CCC1COC2 [Example 282, N-(5′-(3-oxa-8-azabicyclo[3.2.1]octan-8-yl)-6′-ethoxy-2-methyl-[3,3′-bipyridin]-5-yl)-6-(trifluoromethyl)pyridazine-4-carboxamide]",IC50: 53 nM
–,–,"Cc1ccc(NC(=O)c2ccnc(C(C)(F)F)c2)cc1-c1cc(OCCO)nc(N2CCOCC2)c1 [Example 1159, 2-(1,1-difluoroethyl)-N-(3-(2-(2-hydroxyethoxy)-6-morpholinopyridin-4-yl)-4-methylphenyl)isonicotinamide]",IC50 [2]: 0.75 nM
–,0.4 nM,"Cc1ccc(NC(=O)c2ccnc(C3CC3)c2)cc1-c1cc(N2CCOCC2)n(C)c(=O)c1 [Example 477, 2-cyclopropyl-N-(4-methyl-3-(1-methyl-6-morpholino-2-oxo-1,2-dihydropyridin-4-yl)phenyl)isonicotinamide]",–
–,–,"Cc1ccc(NC(=O)c2ccnc(C(F)F)c2)cc1-c1nc2c(c(N3CCOCC3)n1)S(=O)(=O)CC2 [Example 856, 2-(difluoromethyl)-N-(4-methyl-3-(4-morpholino-5,5-dioxido-6,7-dihydrothieno[3,2-d]pyrimidin-2-yl)phenyl)isonicotinamide]",IC50 [2]: 5.5 nM
10 nM,–,"CCOc1ncc(-c2cc(NC(=O)c3cc(N4CCN(CC)CC4)cc(C(F)(F)F)c3)cnc2C)cc1N1CCOCC1 [Example 257, N-(6′-ethoxy-2-methyl-5′-morpholino-[3,3′-bipyridin]-5-yl)-3-(4-ethylpiperazin-1-yl)-5-(trifluoromethyl)benzamide]",–
–,4.2 nM,"CCOc1nnc(-c2cc(NC(=O)c3cnnc(C(F)(F)F)c3)cnc2C)cc1N1CCOCC1 [Example 614, N-(5-(6-ethoxy-5-morpholinopyridazin-3-yl)-6-methylpyridin-3-yl)-6-(trifluoromethyl)pyridazine-4-carboxamide]",–

Compound,IC50 [1],IC50 [3],other results
"Cc1ncc(NC(=O)c2ccnc(C(F)(F)F)c2)cc1-c1cnc(OC2CCOCC2)c(N2C3CCC2COC3)c1 [Example 278, N-(5′-(3-oxa-8-azabicyclo[3.2.1]octan-8-yl)-2-methyl-6′-((tetrahydro-2H-pyran-4-yl)oxy)-[3,3′-bipyridin]-5-yl)-2-(trifluoromethyl)isonicotinamide]",8.4 nM,–,–
"Cc1ccc(NC(=O)c2ccnc(C(F)(F)F)c2)cc1-c1cc(N2CCOCC2)c(=O)n(C)n1 [Example 658, N-(4-methyl-3-(1-methyl-5-morpholino-6-oxo-1,6-dihydropyridazin-3-yl)phenyl)-2-(trifluoromethyl)isonicotinamide]",–,3.1 nM,–
